Measurements as given in patent US20070254035A1, “Preparing Active Polymer Extrudates” (priority 2003, published 2007).

Key:
ribonuclease = assay: Standard activity assay of ribonuclease liberated from the CO2-processed polymer extrudate; assay type: biochemical; settings: Example 5: poly(D,L-lactic acid) MW 71,000 : enzyme ca. 20:1 w/w, CO2 ca. 35° C., 300 bar; compared to ribonuclease that has not undergone processing
Method: (§1) Poly(D,L-lactic acid) (MW 71,000) and ribonuclease enzyme powder are added to a high pressure autoclave at a defined ratio (ca. 20:1 weight for weight). The autoclave is charged with carbon dioxide at a defined temperature and pressure (ca. 35° C., 300 bar) sufficient to ensure plasticization of the polymer by carbon dioxide and the contents are mixed together. Discharging of the contents into a second autoclave at atmospheric pressure, through a longer angled nozzle, yields a solid fibrous-mesh product, containing ribonuclease, of similar morphology to Example 1. Upon liberation from the polymer the biological activity of ribonuclease is unaffected by the carbon dioxide processing compared to ribonuclease that has not undergone processing. Standard activity assays described in the literature are used to determine the ribonuclease activity.

lysozyme = assay: Standard activity assay of lysozyme liberated from the CO2-processed polymer extrudate; assay type: biochemical; settings: Example 6: poly(D,L-lactic acid) MW 71,000 : enzyme ca. 20:1 w/w, CO2 ca. 35° C., 300 bar; compared to lysozyme that has not undergone processing
Method: as §1, with “lysozyme” for “ribonuclease”, “lysozyme,” for “ribonuclease,”

Substance | biological activity of ribonuclease upon liberation from the polymer (ribonuclease) | biological activity of lysozyme upon liberation from the polymer (lysozyme)
ribonuclease | unaffected | 
lysozyme |  | unaffected
